Reference: patent US7736621B2, “Methods for gauging the effect of a depression treatment by determining the levels of beta-arrestin 1 and G-protein coupled receptor kinase 2” (Hypatia Ltd., priority 2004, dated 2010)

Experiments:
Gs and Gi proteins = conditions: cited from earlier work
beta-arrestin1 = experiment: Beta-arrestin 1 levels in rat brain areas after chronic antidepressant treatment (immunoblot); assay type: in vivo; conditions: three weeks of treatment
Method: On the 22nd day, rats were decapitated, blood collected and brain regions immediately dissected. Tissue homogenization was carried out in a glass-teflon homogenizer with ice-cold buffer containing 20 mM Tris.Cl pH 7.4, 2 mM EDTA, 1 mM DTT and antiprotease cocktail (Sigma). After initial centrifugation at 800 g for 5 min, the supernatant was collected and further centrifuged at 48,000 g for 30 min using a Beckman Ti80 rotor. The resulting supernatant and pellet were separated: the supernatant fraction was collected and centrifuged at 120,000 g for 45 min and the supernatant obtained was used for all measurements; the pellet was resuspended in the homogenization buffer and the pellet fraction obtained was used for all measurements.
On the day of assay, cytosolic and/or membrane fraction were thawed. 10 μg total protein aliquots were taken for protein separation by SDS-(10%) polyacrylamide gel electrophoresis. The resulting proteins were transferred to nitrocellulose paper by use of electroblotting apparatus. Blots were blocked with 5% BSA for 1 hr in TBS containing 0.1% Tween-20 (TTBS) and incubated overnight with a monoclonal antibody to beta-arrestin1 (Transduction Labs, diluted 1:250). The immune bands were detected by subsequent incubation with anti-mouse IgG labeled with horseradishperoxidase using the Enhanced Chemiluminescence Western Blot Detection System (Amersham) followed by exposure to Kodak X-Omat film. […] Peak heights of immunoreactive bands presented as arbitrary absorbance units, were determined with a computer-assisted imaging system for semi-quantitative measurements. 10 μg rat cortical membranes run in each blot as a standard reference.
Beta-arrestin1 levels were measured in three rat brain areas: cortex, hippocampus and striatum.

| SMILES | Dopamine-induced Gs hyperfunction of untreated patients with schizophrenia (Gs and Gi proteins; leukocytes of patients with schizophrenia) | Gs level and function (Gs and Gi proteins; patients with schizophrenia, reduction correlated with intensity of Parkinsonian side effects) | Cytosolic beta-arrestin-1 in rat cortex (beta-arrestin1; rat cortex, cytosolic fraction, 10 mg/kg twice daily intragastrically, compared with control group) | Membrane beta-arrestin 1 in rat cortex (beta-arrestin1; rat cortex, membrane fraction, 10 mg/kg twice daily intragastrically, compared with control group) | Cytosolic beta-arrestin-1 in rat hippocampus (beta-arrestin1; rat hippocampus, cytosolic fraction, 10 mg/kg twice daily intragastrically, compared with control group) | Beta-arrestin 1 levels in striatum (beta-arrestin1; rat striatum) |
| --- | --- | --- | --- | --- | --- | --- |
| O=C(CCCN1CCC(O)(c2ccc(Cl)cc2)CC1)c1ccc(F)cc1 [haloperidol] | corrected | significant decrease in Gs level and function to below normal levels |  |  |  |  |
| CN(C)CCCN1c2ccccc2CCc2ccccc21 [imipramine] |  |  | 165.6% | 156.8% | 179.2% | no alterations |
